The values below come from ChEMBL document CHEMBL1201862, “PubChem BioAssay data set” (2004).

Each structure is given as a SMILES string.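 Exposure lasted 48 hours, with cells grown in 96-well plates and compounds tested at five concentrations. GI50 marks 50% less growth.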 Activity calls are given as the source filed them. Rule as the data show it: active = GI50 up to about 1.1 µM and inactive = higher. A value given as a limit tells only on which side of the number the result lay.

Among the test systems are SN12C; MDA-MB-231; NCI-H522; SK-OV-3; MDA-N; T47D; HOP-92; SF-295; ACHN; A498; SF-268; OVCAR-5; SNB-19; COLO 205; U-251; HCT-15; NCI-H460; MOLT-4; K562; SR.
Assay in all cases: inhibition of tumour cell growth, NCI panel, 48 h

In the case of `O=S(=O)(O)c1ccc(/N=N/c2ccc3c(S(=O)(=O)O)cccc3c2O)c2ccccc12`, the GI50 in the test with SN12C, in the test with MDA-MB-231, in the test with NCI-H522, in the test on SK-OV-3, in the test on MDA-N and in the test on T47D was > 100 µM (inactive) throughout. Also, the GI50 in the test on HOP-92, in the test on SF-295, in the test on ACHN, in the test on A498, with SF-268 and with OVCAR-5 was > 100 µM (inactive) in each case. Besides, the GI50 with SNB-19 was > 100 µM (inactive); with COLO 205 it was > 100 µM (inactive); with U-251, > 100 µM (inactive); in the test with HCT-15, greater than 100 µM.

On to `CC[C@@]1(O)C(=O)OCc2c1cc1n(c2=O)Cc2cc3cc4c(cc3nc2-1)OCO4`, for which the GI50 with SN12C was < 0.001 µM (active); in the test with MDA-MB-231, 0.357 µM (active); with NCI-H522 it was 0.00133 µM (active); in the test on SK-OV-3 it was 0.002 µM (active); in the test on T47D, 0.0104 µM (active); with HOP-92, 0.0026 µM (active). Also, the GI50 is < 0.001 µM (active) with SF-295; < 0.001 µM (active) with ACHN; < 0.001 µM (active) in the test on NCI-H460; < 0.001 µM (active) in the test with MOLT-4; 0.00304 µM (active) in the test on K562; < 0.0143 µM (active) with A498. Further, the GI50 with SF-268 is < 0.001 µM (active); with OVCAR-5, 0.0111 µM (active); in the test with SNB-19 it was 0.00152 µM (active); with COLO 205, 0.0439 µM (active); in the test with U-251, < 0.001 µM (active); in the test on SR, < 0.001 µM (active). The molecule further showed a GI50 in the test on HCT-15 of 0.0181 µM.

Turning to `CC(C)(O)C1CC[C@]2(C)[C@H]3CC[C@@H]4[C@@]5(C)CCCC(C)(C)[C@@H]5CC[C@@]4(C)[C@]3(C)CC[C@@H]12` (stereo not given in full), the GI50 with SN12C, with MDA-MB-231, in the test on NCI-H522, in the test on SK-OV-3, in the test with MDA-N and in the test on T47D was > 100 µM (inactive) throughout. Further, the GI50 in the test with HOP-92, in the test with SF-295, in the test with ACHN, in the test with NCI-H460, in the test on MOLT-4 and in the test with A498 was > 100 µM (inactive) each time. The GI50 in the test with SF-268 is > 100 µM (inactive); with OVCAR-5, > 100 µM (inactive); with SNB-19 it was > 100 µM (inactive); in the test on COLO 205 it was > 100 µM (inactive); in the test with U-251, > 100 µM (inactive); in the test on HCT-15, greater than 100 µM.

Take `COc1cc(OC)c2nc(C)c3c(c2c1)NCC3`: the GI50 in the test on SN12C is 4.48 µM (inactive); in the test with MDA-MB-231, 7.76 µM (inactive); with NCI-H522, 7.73 µM (inactive); in the test on SK-OV-3, 14.3 µM (inactive); with MDA-N, 8.09 µM (inactive); in the test with HOP-92, 13.3 µM (inactive). Besides, the GI50 in the test with SF-295 is 11.2 µM (inactive); in the test with ACHN, 4.88 µM (inactive); in the test on NCI-H460 it was 3.33 µM (inactive); in the test with K562 it was 0.776 µM (active); in the test with A498 it was 13.7 µM (inactive); with SF-268 it was 5.92 µM (inactive). Moreover, the GI50 in the test with OVCAR-5 was 6.28 µM (inactive); with SNB-19, 12.6 µM (inactive); in the test on COLO 205, 4.68 µM (inactive); in the test with U-251 it was 9.35 µM (inactive); in the test on SR, 2.89 µM (inactive); in the test with HCT-15, 12.1 µM.

As to `CC(=O)N1c2ccccc2Sc2cc(C(O)(C(F)(F)F)C(F)(F)F)ccc21`, the GI50 in the test with SN12C was > 10 µM (inactive); in the test with MDA-MB-231 it was > 10 µM (inactive); with NCI-H522, > 10 µM (inactive); in the test on SK-OV-3, > 10 µM (inactive); with MDA-N it was > 10 µM (inactive); in the test with T47D, 9.86 µM (inactive). Besides, the GI50 with HOP-92 is 4.66 µM (inactive); with SF-295, > 10 µM (inactive); with ACHN, > 10 µM (inactive); in the test with NCI-H460, > 10 µM (inactive); in the test on MOLT-4, > 10 µM (inactive); in the test on K562, > 10 µM (inactive). Besides, the GI50 with A498, in the test on SF-268, with OVCAR-5, in the test with SNB-19, with COLO 205 and with U-251 was > 10 µM (inactive) each time. In the test on HCT-15, the GI50 was greater than 10 µM.

In the case of `c1ccc(NC2(c3nnnn3C3CCCCC3)CCNCC2)cc1`, the GI50 was 36.6 µM (inactive) with SN12C; 39.6 µM (inactive) with MDA-MB-231; 26 µM (inactive) in the test with SK-OV-3; 23.1 µM (inactive) with T47D; 6.01 µM (inactive) with HOP-92; 17.9 µM (inactive) in the test with SF-295. Moreover, the GI50 with ACHN was 20.1 µM (inactive); with NCI-H460, 15.2 µM (inactive); in the test on MOLT-4 it was 18.2 µM (inactive); with A498, 18 µM (inactive); in the test on SF-268, 39.6 µM (inactive); in the test with OVCAR-5, 14.9 µM (inactive). Also, the GI50 with SNB-19 is 17.5 µM (inactive); in the test with COLO 205 it was 19.8 µM (inactive); in the test on U-251 it was 16.6 µM (inactive); in the test on SR, 17.5 µM (inactive); in the test with HCT-15, 21.2 µM.

As for `CN(C)c1ccc(-c2c(C#N)c(S)n(NS(=O)(=O)c3ccccc3)c(=O)c2C#N)cc1`, the GI50 is 20.2 µM (inactive) in the test on SN12C; 22.3 µM (inactive) in the test with MDA-MB-231; 14.7 µM (inactive) in the test with NCI-H522; 59.6 µM (inactive) with SK-OV-3; 25 µM (inactive) in the test with MDA-N; 25 µM (inactive) in the test on HOP-92. Moreover, the GI50 was 31 µM (inactive) in the test on SF-295; 26.8 µM (inactive) in the test with ACHN; 16.6 µM (inactive) in the test on MOLT-4; 30.7 µM (inactive) in the test on K562; 22.3 µM (inactive) in the test with A498; 55.6 µM (inactive) in the test with OVCAR-5. Besides, the GI50 in the test on SNB-19 was 48.1 µM (inactive); in the test with COLO 205, 38.5 µM (inactive); in the test with U-251, 24.1 µM (inactive); with SR, 10 µM (inactive); in the test on HCT-15 it was 20.5 µM.

As to `CCCOC(=O)c1cc(C(=CCC[C@H]2CC[C@@]3(C)[C@@H](CC[C@@H]4[C@@H]3CC[C@]3(C)[C@@H](C(C)CCCC(C)C)CC[C@@H]43)C2)c2cc(Cl)c(O)c(C(=O)OCCC)c2)cc(Cl)c1O` (stereo not given in full), the GI50 with SN12C, with MDA-MB-231, in the test on MDA-N, in the test with T47D, in the test with NCI-H460 and in the test on MOLT-4 was > 50 µM (inactive) throughout. For the same molecule, the GI50 with K562 is > 5 µM (inactive); in the test with A498 it was > 50 µM (inactive); in the test with SF-268 it was > 50 µM (inactive); in the test on SNB-19 it was > 50 µM (inactive); in the test on COLO 205, > 50 µM (inactive); in the test with U-251, > 50 µM (inactive). Moreover, the GI50 with HCT-15 was greater than 50 µM.

Take `NNC(=O)c1nn[nH]c1SSc1[nH]nnc1C(=O)NN`: the GI50 in the test on SN12C, with MDA-MB-231, with NCI-H522, with SK-OV-3, with MDA-N and in the test on HOP-92 was > 100 µM (inactive) in each case. In addition, the GI50 in the test on SF-295, with ACHN, in the test with NCI-H460, in the test with MOLT-4, in the test with SF-268 and in the test on OVCAR-5 was > 100 µM (inactive) in each case. In addition, the GI50 was > 100 µM (inactive) in the test with SNB-19, > 100 µM (inactive) in the test with COLO 205, > 100 µM (inactive) with U-251 and greater than 100 µM in the test with HCT-15.

As for `c1ccc2c(c1)SC1=C(SC(=C3SC4=C(S3)Sc3ccccc3S4)S1)S2`, the GI50 in the test on SN12C, in the test with MDA-MB-231, in the test with NCI-H522, with MDA-N, in the test with T47D and in the test with HOP-92 was > 100 µM (inactive) throughout. Moreover, the GI50 in the test with SF-295, in the test on ACHN, in the test on NCI-H460, with MOLT-4, in the test with SF-268 and with OVCAR-5 was > 100 µM (inactive) in each case. Also, the GI50 with SNB-19 was > 100 µM (inactive); with COLO 205, > 100 µM (inactive); in the test with U-251, > 100 µM (inactive); in the test on HCT-15 it was greater than 100 µM.

Take `C/C(=C\c1ccc2c(c1)OCO2)[N+](=O)[O-]`: the GI50 with SN12C was 3.38 µM (inactive); in the test on MDA-MB-231, 6.49 µM (inactive); with NCI-H522, 1.64 µM (inactive); in the test on T47D, 1.64 µM (inactive); with HOP-92 it was 2.51 µM (inactive); with SF-295, 2.85 µM (inactive). The GI50 in the test on ACHN is 2.01 µM (inactive); with NCI-H460, 3.26 µM (inactive); in the test with MOLT-4, 0.195 µM (active); in the test on K562 it was 1.64 µM (inactive); with A498, 7.23 µM (inactive); in the test on SF-268, 3.44 µM (inactive). The GI50 was 3.96 µM (inactive) in the test on OVCAR-5; 2.49 µM (inactive) with SNB-19; 1.66 µM (inactive) in the test on COLO 205; 1.79 µM (inactive) in the test with U-251; 0.323 µM (active) with SR; 1.96 µM in the test on HCT-15.

`C=CCON(C(=O)OC(C)(C)C)C(C)(C)C`: the GI50 with MDA-MB-231, in the test on NCI-H522, in the test on SK-OV-3, in the test with T47D, in the test on HOP-92 and in the test on SF-295 was > 100 µM (inactive) each time. In addition, the GI50 in the test with ACHN, with NCI-H460, in the test with MOLT-4, in the test with K562, in the test on A498 and in the test on SF-268 was > 100 µM (inactive) throughout. In addition, the GI50 in the test with OVCAR-5 was > 100 µM (inactive); in the test with SNB-19, > 100 µM (inactive); with COLO 205, > 100 µM (inactive); with U-251 it was > 100 µM (inactive); in the test on SR, > 100 µM (inactive); in the test on HCT-15, greater than 100 µM.
